This is an account of results in US7511145B2 (Genelabs Technologies, Inc., priority 2003, dated 2009).

The target of this test is T1, HCV-NS5b (Hepatitis C virus genotype 1b, UniProt Q9WMX2).
T1 construct: (His)6 (C); made in house; host or cells: XL-1 cells (E. coli), IPTG-inducible plasmid, nickel-NTA purification
The experiment in a line: HCV-NS5b enzyme assay (incorporation of radiolabeled UTP). To be noted: for inhibition at 33 µM: enzyme inhibition at compound concentration of 33 uM; for inhibition at 100 µM: read-out: % inh@100, enzyme inhibition at compound concentration of 100 uM. It counts as biochemical. The method in brief: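 His6-tagged NS5b lacking the C-terminal 21 residues, expressed in XL-1 and Ni-NTA purified. Reaction at pH 7.5 with 5 mM MgCl2, 10 μM each NTP including [3H]-UTP and biotinylated HCV heteropolymeric template, 2 h at 37° C; SPA read-out; % inhibition at 100 and 33 uM versus no-compound control, background subtracted.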

As to `O=C(O)c1ccc2c(c1)nc(-c1ccc3nc(-c4ccnc5ccccc45)ccc3c1)n2C1CCCCC1` [Compound 423, 2-[2,4′]biquinolinyl-6-yl-1-cyclohexyl-1H-benzoimidazole-5-carboxylic acid], the inhibition at 33 µM came out at 102% and the inhibition at 100 µM is 102%.
In the case of `O=C(O)c1ccc2c(c1)nc(-c1ccc3nc(-c4ccccc4Br)c(-c4ccccc4)cc3c1)n2C1CCCCC1` [Compound 424, 2-[2-(2-Bromo-phenyl)-3-phenyl-quinolin-6-yl]-1-cyclohexyl-1H-benzoimidazole-5-carboxylic acid], the inhibition at 33 µM amounted to 98.7% and the inhibition at 100 µM stood at 99.1%.
On to `COc1cccc(-c2nc3ccc(-c4nc5cc(C(=O)O)ccc5n4C4CCCCC4)cc3nc2-c2cccc(OC)c2)c1` [Compound 425, 2-[2,3-Bis-(3-methoxyphenyl)quinoxalin-6-yl]-1-cyclohexyl-1H-benzimidazole-5-carboxylic acid], for which the inhibition at 33 µM came to 96.2% and the inhibition at 100 µM worked out at 98.2%.
For `Cc1nc(C)c(-c2ccc3cc(-c4nc5cc(C(=O)O)ccc5n4C4CCCCC4)ccc3n2)s1` [Compound 426, 1-cyclohexyl-2-[2-(2,4-dimethyl-thiazol-5-yl)-quinolin-6-yl]-1H-benzoimidazole-5-carboxylic acid], the inhibition at 33 µM turned out to be 96.6% and the inhibition at 100 µM came to 102%.
Taken in the same sequence, the figures for `O=C(O)c1ccc2c(c1)nc(-c1ccc3nc(-c4ccccn4)ccc3c1)n2C1CCCCC1` [Compound 427, 1-cyclohexyl-2-(2-pyridin-2-yl-quinolin-6-yl)-1H-benzoimidazole-5-carboxylic acid] were 93.8% and 98.4%.
For `O=C(O)c1ccc2c(c1)nc(-c1ccc3nc(-c4ccc(Oc5ccccc5)cc4)ccc3c1)n2C1CCCCC1` [Compound 428, 1-cyclohexyl-2-[2-(4-phenoxy-phenyl)-quinolin-6-yl]-1H-benzoimidazole-5-carboxylic acid], the inhibition at 33 µM was 98.8% and the inhibition at 100 µM worked out at 99.6%.
For `O=C(O)c1ccc2c(c1)nc(-c1ccc3nc(-c4ccc(N5CCOCC5)cc4)ccc3c1)n2C1CCCCC1` [Compound 429, 1-cyclohexyl-2-[2-(4-morpholin-4-yl-phenyl)-quinolin-6-yl]-1H-benzoimidazole-5-carboxylic acid] the same measures were 96.2% and 101%.
Taken in the same sequence, the figures for `O=C(O)c1ccc2c(c1)nc(-c1ccc3nc(-c4cc(OCCCN5CCCC5)ccc4-c4ccccc4)ccc3c1)n2C1CCCCC1` [Compound 430, 1-Cyclohexyl-2-{2-[4-(3-pyrrolidin-1-yl-propoxy)-biphen-2-yl]-quinolin-6-yl}-1H-benzoimidazole-5-carboxylic acid] were 98% and 96.7%.
For `O=C(O)c1ccc2c(c1)nc(-c1ccc3nc(-c4cn(-c5cccnc5Cl)c(=O)[nH]c4=O)ccc3c1)n2C1CCCCC1` [Compound 431, 2-{2-[1-(2-chloro-pyridin-3-yl)-2,4-dioxo-1,2,3,4-tetrahydro-pyrimidin-5-yl]-quinolin-6-yl}-1-cyclohexyl-1H-benzoimidazole-5-carboxylic acid], the inhibition at 33 µM was 95.3% and the inhibition at 100 µM was 96.4%.
Turning to `O=C(O)c1ccc2c(c1)nc(-c1ccc3nc(-c4cc[nH]c4)ccc3c1)n2C1CCCCC1` [Compound 432, 1-cyclohexyl-2-[2-(1H-pyrrol-3-yl)-quinolin-6-yl]-1H-benzoimidazole-5-carboxylic acid], the inhibition at 33 µM turned out to be 88.9% and the inhibition at 100 µM amounted to 96.4%.
For `O=C(O)c1ccc2c(c1)nc(-c1ccc3nc(-c4ccccc4)cc(Nc4ccccc4)c3c1)n2C1CCCCC1` [Compound 433, 1-cyclohexyl-2-(2-phenyl-4-phenylamino-quinolin-6-yl)-1H-benzoimidazole-5-carboxylic acid] the same measures were 92.5% and 100%.
Turning to `COc1cccc(O)c1-c1ccc2cc(-c3nc4cc(C(=O)O)ccc4n3C3CCCCC3)ccc2n1` [Compound 434, 1-cyclohexyl-2-[2-(2-hydroxy-6-methoxy-phenyl)-quinolin-6-yl]-1H-benzoimidazole-5-carboxylic acid], the inhibition at 33 µM turned out to be 105% and the inhibition at 100 µM came out at 102%.
Take `O=C(O)c1ccc2c(c1)nc(-c1ccc3nc(-c4cc(C(=O)N5CCCC5)ccc4-c4ccc([N+](=O)[O-])cc4)ccc3c1)n2C1CCCCC1` [Compound 435, 1-cyclohexyl-2-{2-[4′-nitro-4-(pyrrolidine-1-carbonyl)biphen-2-yl]quinolin-6-yl}-1H-benzimidazole-5-carboxylic acid]: the inhibition at 33 µM stood at 102% and the inhibition at 100 µM worked out at 101%.
For `COc1ccc(-c2ccc(C(F)(F)F)cc2)c(-c2ccc3cc(-c4nc5cc(C(=O)O)ccc5n4C4CCCCC4)ccc3n2)c1` [Compound 436, 1-cyclohexyl-2-[2-(4-methoxy-4′-trifluoromethyl-biphen-2-yl)-quinolin-6-yl]-1H-benzoimidazole-5-carboxylic acid], the inhibition at 33 µM came to 98.8% and the inhibition at 100 µM is 99.3%.
On to `COc1ccc(-c2cccc(C(=O)O)c2)c(-c2ccc3cc(-c4nc5cc(C(=O)O)ccc5n4C4CCCCC4)ccc3n2)c1` [Compound 437, 2-[2-(3′-carboxy-4-methoxy-biphen-2-yl)-quinolin-6-yl]-1-cyclohexyl-1H-benzoimidazole-5-carboxylic acid], for which the inhibition at 33 µM is 100% and the inhibition at 100 µM worked out at 101%.
For `COc1ccc(-c2ccc(C)cc2)c(-c2ccc3cc(-c4nc5cc(C(=O)O)ccc5n4C4CCCCC4)ccc3n2)c1` [Compound 438, 1-cyclohexyl-2-[2-(4-methoxy-4′-methyl-biphen-2-yl)-quinolin-6-yl]-1H-benzoimidazole-5-carboxylic acid], the inhibition at 33 µM was 98.7% and the inhibition at 100 µM came to 99.6%.
In the case of `O=C(O)c1ccc2c(c1)nc(-c1ccc3nc(-c4cc([N+](=O)[O-])ccc4-c4ccc(Cl)cc4)ccc3c1)n2C1CCCCC1` [Compound 439, 2-[2-(4′-chloro-4-nitro-biphen-2-yl)-quinolin-6-yl]-1-cyclohexyl-1H-benzoimidazole-5-carboxylic acid], the inhibition at 33 µM came to 99.2% and the inhibition at 100 µM came out at 97%.
Turning to `O=C(O)c1ccc2c(c1)nc(-c1ccc3nc(-c4ccccc4-c4ccc(Cl)cc4)c(-c4ccccc4)cc3c1)n2C1CCCCC1` [Compound 440, 2-[2-(4′-Chloro-biphen-2-yl)-3-phenyl-quinolin-6-yl]-1-cyclohexyl-1H-benzoimidazole-5-carboxylic acid], the inhibition at 33 µM is 99.2% and the inhibition at 100 µM was found to be 97.8%.
For the compound `COc1ccc(-c2nc3ccc(-c4nc5cc(C(=O)O)ccc5n4C4CCCCC4)cc3nc2-c2ccc(OC)cc2)cc1` [Compound 441, 2-[2,3-Bis-(4-methoxyphenyl)quinoxalin-6-yl]-1-cyclohexyl-1H-benzimidazole-5-carboxylic acid], the inhibition at 33 µM was 97.3% and the inhibition at 100 µM worked out at 98.8%.
For `O=C(O)c1ccc2c(c1)nc(-c1ccc3nc(-c4cnccn4)ccc3c1)n2C1CCCCC1` [Compound 442, 1-cyclohexyl-2-(2-pyrazin-2-yl-quinolin-6-yl)-1H-benzoimidazole-5-carboxylic acid] the same measures were 92.5% and 98.2%.
Consider `O=C(O)c1ccc2c(c1)nc(-c1ccc3nc(-c4ccncc4)ccc3c1)n2C1CCCCC1` [Compound 443, 1-cyclohexyl-2-(2-pyridin-4-yl-quinolin-6-yl)-1H-benzoimidazole-5-carboxylic acid], for which the inhibition at 33 µM was 87% and the inhibition at 100 µM turned out to be 98.7%.
`Cc1ccc2cc(-c3ccc4cc(-c5nc6cc(C(=O)O)ccc6n5C5CCCCC5)ccc4n3)ccc2c1` [Compound 444, 1-cyclohexyl-2-[2-(6-methyl-naphthalen-2-yl)-quinolin-6-yl]-1H-benzoimidazole-5-carboxylic acid]: the inhibition at 33 µM worked out at 99.5% and the inhibition at 100 µM worked out at 101%.
In the case of `COCCOc1cccc(-c2ccc3cc(-c4nc5cc(C(=O)O)ccc5n4C4CCCCC4)ccc3n2)c1` [Compound 445, 1-Cyclohexyl-2-{2-[3-(2-methoxy-ethoxy)-phenyl]-quinolin-6-yl}-1H-benzoimidazole-5-carboxylic acid], the inhibition at 33 µM was 96.9% and the inhibition at 100 µM was 99.6%.
`O=C(O)c1ccc2c(c1)nc(-c1ccc3nc(-c4ccccc4[N+](=O)[O-])ccc3c1)n2C1CCCCC1` [Compound 446]: the inhibition at 33 µM stood at 96.6% and the inhibition at 100 µM is 101%.
For `O=C(O)c1ccc2c(c1)nc(-c1ccc3nc(-c4cc(OCCCN5CCCC5)ccc4-c4ccc(Cl)cc4)ccc3c1)n2C1CCCCC1` [Compound 447, 2-{2-[4′-Chloro-4-(3-pyrrolidin-1-yl-propoxy)-biphen-2-yl]-quinolin-6-yl}-1-cyclohexyl-1H-benzoimidazole-5-carboxylic acid], the inhibition at 33 µM is 97.8% and the inhibition at 100 µM worked out at 94.9%.
For `Cc1oc2ccc(OCc3ccccc3)cc2c1-c1ccc2cc(-c3nc4cc(C(=O)O)ccc4n3C3CCCCC3)ccc2n1` [Compound 448, 2-[2-(5-benzyloxy-2-methyl-benzofuran-3-yl)-quinolin-6-yl]-1-cyclohexyl-1H-benzoimidazole-5-carboxylic acid] the same measures were 94.6% and 96%.
Consider `O=C(O)c1ccc2c(c1)nc(-c1ccc3nc(-c4cnn(-c5ccccc5)c4)ccc3c1)n2C1CCCCC1` [Compound 449, 1-cyclohexyl-2-[2-(1-phenyl-1H-pyrazol-4-yl)-quinolin-6-yl]-1H-benzoimidazole-5-carboxylic acid], for which the inhibition at 33 µM came out at 99.8% and the inhibition at 100 µM was determined as 101%.
